Where a name gives a salt, the structure may show the parent alone.

The values below come from PMC12190436, “5-Ene-2-arylaminothiazol-4(5H)-ones Induce Apoptosis in Breast Cancer Cells” (Cells, 2025).

Assay [1] has as its system MCF-7 cells. The assay is described as follows: [3H]-thymidine incorporation assay. The format is cell-based. The following applies: Homo sapiens, 24 h, read-out: [3H]-thymidine incorporation (% of control); for activity at 1 µM: MCF7, 1 µM; for activity at 2.5 µM: MCF7, 2.5 µM; for activity at 5 µM: MCF7, 5 µM. On the procedure: To evaluate the effects of synthesized compounds and reference drug on cell proliferation [3H]-thymidine incorporation assay was applied. MCF-7 cells were seeded on 6-well plates as described before. After 24 h of incubation, the cells were treated with different concentrations of novel 4-thiazolidinone derivatives Les-6416, Les-6418 (1, 2.5, 5 µM), and doxorubicin hydrochloride (0.5 and 1 µM) for 24 h at 37 °C. After 24 h, the medium was changed to a fresh one without fetal bovine serum. A total of 0.5 µCi of tritium-labeled thymidine (specific activity: 7 Ci/mmol) was added to cells for 4 h. Afterwards, the cells were washed with 1 mL of 0.05 M Tris-HCl buffer pH 7.4 containing 0.11 M NaCl and […] 5% trichloroacetic acid (TCA). Each well was filled with 1 mL of a 0.1 M NaOH solution with 1% SDS for cell lysis. After 5 min, the cell lysates were transferred to scintillation vials, which were pre-filled beforehand with two milliliters of scintillation cocktail Ultima Gold XR from PerkinElmer (Waltham, MA, USA). The Scintillation Counter 1900 TR, TRI-CARB (Packard, Perkin Elmer, Inc., San Jose, CA, USA) was used to record the results. The radioactivity observed in untreated control cells was taken as 100%. The values of the tested compound were expressed as a percentage of the control value.
To investigate the antiproliferative activity of Les-6416 and Les-6418 on the MCF-7 cell line after 24 h of treatment, the [^3H]-thymidine incorporation assay was applied. Based on the outcome of previous analysis and the structural similarity of the tested compounds, 5, 2.5, and 1 µM concentrations were applied for this research. The obtained results are shown in the graph below (Figure 2). […] Formidable results also were obtained from the reference drug doxorubicin hydrochloride: 26.00 ± 7.07% for 1 µM and 43.50 ± 3.54% for 0.5 µM

Assay [2] deals with MCF-7 cells. The assay is described as follows: Clonogenic assay. The following applies: 24 h treatment, 10-day endpoint. Format: cell-based, human. Here is the method: The clonogenic assay was performed in accordance with the published methodology. MCF-7 cells were seeded in 24-well plates at 2.5 × 10^2 cells per well in 1 mL medium. Afterwards, they were left in an incubator at 37 °C for 24 h to attach to the wells. […] After the treatment, the medium was changed to a fresh one and left for 10 days, with an additional change in medium for the fresh one on the 7th day. Next, colonies formed by the seeded cells were washed, fixed for 10 min at 4 °C with 90% methanol, and stained with crystal violet solution (0.1% of crystal violet dissolved in 25% methanol). Afterwards, the plates were washed and dried at room temperature. The wells were photographed and analyzed using ImageJ software version 1.54k (Bethesda, MD, USA), with colonies defined as clusters of fifty or more cells.
Colonies formation was assessed after a 10-day incubation period following the treatment.

In assay [3] the test system is MCF-7 cells. The assay is described as follows: Annexin V-FITC/propidium iodide flow cytometry. The format is cell-based, human. The note with it: 24 h; for viability at 5 µM: MCF7, 5 µM. Here is the method:
The MCF-7 cells were seeded on 6-well plates (1 × 10^5 cells per well) and incubated for 24 h. Afterwards, the cells were washed, and tested compounds (Les-6416, Les-6418, Les-6381, Les-6423, and Les-6424) were added in a concentration of 5 µM. The reference drug doxorubicin hydrochloride was applied in a concentration of 0.5 µM. The cells were incubated with the compounds for 24 h. Afterwards, the cells were washed several times with cold PBS and the cell suspensions were prepared in the binding buffer from the kit at a concentration of 1 × 10^6 cells/mL. A total of 100 µL of suspension was collected from each sample and transferred to the tubes. After that, 5 µL of Annexin V-FITC and 5 µL of propidium iodide were added. After 15 min of incubation at room temperature in a dark environment, the content of the tubes was filled with binding buffer up to 500 µL and assessed by BD FACSCanto II flow cytometer (Becton Dickinson Biosciences, San Jose, CA, USA). A total of 1 × 10^4 events were measured for each sample. The results were investigated by applying FACSDiva software Version 6.1.3. (BD Biosciences Systems, San Jose, CA, USA).
To assess the effects of novel compounds on apoptosis, we utilized flow cytometry analysis with Annexin V-FITC and Propidium Iodide double staining. In this way, we could distinguish between different cell populations based on their state: unstained or alive cells, cells stained with propidium iodide or necrotic cells, cells only stained with FITC-labeled annexin V or early apoptotic cells, and cells stained with both annexin V and propidium iodide or late apoptotic cells.
In general terms: In flow cytometry, cells or beads pass a laser one at a time.

A further assay concerns NCI-H522. Format: cell-based.
The test system of another assay is MCF7. Format: cell-based.
The next assay deals with MDA-MB-468. The format is cell-based.
Another assay relates to Bax. The assay is described as follows: Bax, anti-Bax FITC antibody flow cytometry. The format is cell-based, human. The following applies: 5 µM, 24 h, MCF-7. Here is the method:
To evaluate the effects of the tested compounds on the concentration of Bax protein, anti-Bax FITC-conjugated antibody was applied. MCF-7 cells were seeded on 6-well plates at 5 × 10^6 cells per well, followed by incubation for 24 h. Afterwards, the cells were treated for 24 h with new 4-thiazolidinone derivatives (Les-6416, Les-6418, Les-6381, Les-6423, and Les-6424) at a concentration of 5 µM. Then, cells were collected and incubated with 4% formaldehyde for 15 min at RT. Next, cells were washed with an excess amount of PBS, followed by permeabilization by adding ice-cold 90% methanol and incubation for 60 min in an ice bath. Cells were again washed with an excess of PBS and resuspended in 100 µL of diluted primary antibody, prepared in antibody dilution buffer at a 1:100 dilution, and incubated for 60 min at room temperature in the dark. Cells were washed, resuspended in 0.3 mL, and transferred to the tubes for immediate assessment using a BD FACSCanto II flow cytometer (Becton Dickinson Biosciences, San Jose, CA, USA). For each sample, 1 × 10^4 events were analyzed. The results were analyzed using FACSDiva software Version 6.1.3 (BD Biosciences Systems, San Jose, CA, USA).
Another important protein for the intrinsic pathway of apoptosis is a pro-apoptotic member of the Bcl-2 family-Bax. […]

Where [4] appears, read: Homo sapiens, read-out: Viable cells, cell population.

Take `COc1cccc2c1C(=O)c1c(O)c3c(c(O)c1C2=O)C[C@@](O)(C(=O)CO)C[C@@H]3O[C@H]1C[C@H](N)[C@H](O)[C@H](C)O1` [DOX, Doxorubicin hydrochloride, reference compound]: in the assay with MCF-7 cells [1] (MCF7, 0.5 µM), the activity at 0.5 µM turned out to be 43.5 ± 3.54%. Further, the activity at 1 µM in the assay on MCF-7 cells [1] stood at 26 ± 7.07%. The molecule further gave a survival fraction in the assay with MCF-7 cells [2] (1, 0.5, and 0.1 µM) of 0%. Further, the “Necrotic cells, cell population” value in the assay with MCF-7 cells [3] (0.5 µM) was found to be 27.23 ± 3.76%. In the assay with MCF-7 cells [3] (Homo sapiens, MCF7, 0.5 µM, read-out: Viable cells, cell population), the viability at 0.5 µM was 59.6%.

For `COc1ccc(C=C2SC(Nc3cc(OC)c(OC)c(OC)c3)=NC2=O)cc1` [Les-6381, 5-(4-Methoxybenzylidene)-2-((3,4,5-trimethoxyphenyl)amino)thiazol-4(5H)-one], the viability at 5 µM with MCF-7 cells [3] (setting [4]) came to 49.6%.

Take `COc1cc(NC2=NC(=O)C(=Cc3ccc4cc[nH]c4c3)S2)cc(OC)c1OC` [Les-6416, 5-((1H-Indol-6-yl)methylene)-2-((3,4,5-trimethoxyphenyl)amino)thiazol-4(5H)-one]: the Growth % in the assay with NCI-H522 (NCI-H522, 10 μM, one dose, 48 h) came to 3.77%. This molecule also registered a Growth % with MCF7 (MCF-7, 10 μM, one dose, 48 h) of 6.76%. Further, the Growth % in the assay on MDA-MB-468 (MDA-MB-468, 10 μM, one dose, 48 h) was found to be 1.33%. Besides, in the assay with MCF-7 cells [1], the activity at 1 µM amounted to 69 ± 1.41%, the activity at 2.5 µM was 27 ± 5.66% and the activity at 5 µM worked out at 21.5 ± 2.12%. In addition, in the assay with MCF-7 cells [2] (2.5 µM), the survival fraction worked out at 5.89 ± 0.71%. Also, the survival fraction with MCF-7 cells [2] (5 µM) is 1.35 ± 1.42%. For the same molecule, in the assay on MCF-7 cells [3] (5 µM), the “Early apoptotic cells, cell population” value is reported as 8.23 ± 2.56%; the “Late apoptotic cells, cell population” value was 45.63 ± 10.29%; the “Necrotic cells, cell population” value turned out to be 0.07 ± 0.06%. Moreover, the viability at 5 µM with MCF-7 cells [3] (setting [4]) was found to be 39.8%. Moreover, the “Bax positive cells, cell population” value with Bax worked out at 12.27 ± 0.45%.

In general, GI50 refers to the concentration giving 50% growth inhibition. Low values mean more potent growth inhibition, high ones less potent growth inhibition. A word on the TGI: it is the concentration giving total growth inhibition. A high value points to lower sensitivity of the cells. With `COc1cc(NC2=NC(=O)C(=Cc3c[nH]c4ccccc34)S2)cc(OC)c1OC` [Les-6418, 5-((1H-Indol-3-yl)methylene)-2-((3,4,5-trimethoxyphenyl)amino)thiazol-4(5H)-one], the concentration for 50% growth inhibition (GI50) was 0.403 µM in the assay on NCI-H522 (Homo sapiens, NCI-H522, 48 h); 1.79 µM in the assay with MCF7 (Homo sapiens, MCF7, 48 h); 0.657 µM in the assay with MDA-MB-468 (Homo sapiens, MDA-MB-468, 48 h). In addition, the CC50 with NCI-H522 (Homo sapiens, NCI-H522, 48 h, read-out: LC50 (the source's name)) stood at 46 µM; with MCF7 (Homo sapiens, MCF7, 48 h, read-out: LC50 (the source's name)) it was 44.7 µM; in the assay on MDA-MB-468 (Homo sapiens, MDA-MB-468, 48 h, read-out: LC50 (the source's name)), 34.3 µM. Also, the TGI in the assay with NCI-H522 (NCI-H522, 48 h) was 5.56 µM; in the assay on MCF7 (MCF7, 48 h) it was 11.9 µM; in the assay with MDA-MB-468 (MDA-MB-468, 48 h), 6.23 µM. Besides, the “SI (TGI)” value in the assay on NCI-H522 (NCI-H522, MG_MID_60/value) is 3.34; in the assay on MCF7 (MCF7, MG_MID_60/value) it was 1.56; with MDA-MB-468 (MDA-MB-468, MG_MID_60/value), 2.99. Further, in the assay with MCF-7 cells [1], the activity at 1 µM was 95.5 ± 7.78%. In the assay on MCF-7 cells [1], the activity at 2.5 µM worked out at 72 ± 12.7%. The activity at 5 µM in the assay with MCF-7 cells [1] is 48.5 ± 12%. Also, the survival fraction in the assay with MCF-7 cells [2] (2.5 µM) stood at 38.83 ± 1.66%; in the assay on MCF-7 cells [2] (5 µM) it was 12.27 ± 9.27%. Also, in the assay on MCF-7 cells [3] (5 µM), the “Early apoptotic cells, cell population” value was found to be 7.55 ± 1.17%. Moreover, in the assay with MCF-7 cells [3] (5 µM), the “Late apoptotic cells, cell population” value was found to be 44.68 ± 8.18%. For the same molecule, the “Necrotic cells, cell population” value in the assay on MCF-7 cells [3] (5 µM) turned out to be 0.13 ± 0.05%. Moreover, in the assay with MCF-7 cells [3] (setting [4]), the viability at 5 µM stood at 47.7%. In the assay on Bax, the “Bax positive cells, cell population” value is given as 8.27 ± 0.58%.

Consider `COc1cc(NC2=NC(=O)C(=Cc3cccs3)S2)cc(OC)c1OC` [Les-6423, 5-(Thiophen-2-ylmethylene)-2-((3,4,5-trimethoxyphenyl)amino)thiazol-4(5H)-one], for which the “proapoptotic effect in comparison to the control” value with MCF-7 cells [3] (5 µM) is on record as “did not have any statistically significant results”. Besides, the viability at 5 µM in the assay on MCF-7 cells [3] (setting [4]) came to 90%.
